Patent US8545830B2, “Multi-functional polymeric materials and their uses” (University of Tennessee Research Foundation, priority 2003, dated 2013)

Test: In vitro release of model drugs methylene blue and BSA from NIPAAm-co-Dex-lactateHEMA hydrogel
Assay type: physicochemical
Conditions: methylene blue from NIPAAm-co-Dex-lactateHEMA gel 5/4 (FIG. 9), PBS pH 7.4, 37° C.
Method: To test the potential of the developed hydrogels as drug release devices, two model drugs (22.5 mg) were loaded during the hydrogel synthesis, which were methylene blue and bovine serum albumin (BSA), representing small molecules and protein drugs, respectively. BSA- or methylene blue-loaded dry gels were immersed in a certain volume of PBS (pH 7.4) at 25 or 37° C. At selected time points, small volume of samples were taken and tested for solute concentration. The same volume of fresh PBS (pH 7.4) was replaced to maintain a constant volume of release medium. Concentration of methylene blue was measured by a UV spectrophotometer at 668 nm. Concentration of BSA was determined through Bradford protein assay.

CN(C)c1ccc2nc3ccc(=[N+](C)C)cc-3sc2c1 [methylene blue]
loaded drug released in initial burst: more than 70%
time after which drug release reached a stable stage: three
